Measurements published in paper PMC9057082 (RSC Advances, 2020).

Experiment: Total antioxidant capacity
Format: biochemical
Conditions: residual hydrogen peroxide measured at 505 nm; mean ± standard deviation

In the case of O=C1O[C@H]([C@@H](O)CO)C(O)=C1O [Ascorbic acid], the “Total anti-oxidant activity IC50” value is reported as 174.8 ± 12.3 µg/mL.
